In paper PMC5702336, “Critical Role of Hepatic Cyp450s in the Testis-Specific Toxicity of (5R)-5-Hydroxytriptolide in C57BL/6 Mice” (Frontiers in Pharmacology, 2017):

What was measured:
γ-H2AX = γ-H2AX protein level and localization in testes and liver (western blot, immunofluorescence); format: in vivo, mouse
Experimental: (§1) For toxicity experiments, mice (n = 3/group) were treated with LLDT-8 (0.5 or 1.0 mg/kg) consecutively administered by gavage for 15 days. Controls received saline. Mice were killed on the 15th-day post-administration and blood, liver, kidney, spleen, testes, and epididymis were collected. About 500 μL blood samples were collected from the heart. The main lobe of the liver, kidney, spleen, and epididymis was fixed in 10% neutral buffered formalin for histological examination, and the left testicle was fixed in modified Davidson's buffer (30% of a 37–40% solution of formaldehyde, 15% ethanol, 5% glacial acetic acid, and 50% distilled H2O) for 16 h followed by 10% neutral buffered formalin for 24 h (Latendresse et al., [2002]). Tissue sections were stained with hematoxylin and eosin (H&E). Remaining tissues were stored at −80°C for RNA and protein extraction.
Cells were washed twice with ice-cold PBS (137 mM NaCl, 2.7 mM KCl, 10 mM Na2HPO4, and 1.8 mM KH2PO4, pH 7.4) and lysed in SDS sample buffer. Cell lysates, containing 20 μg of protein, were separated with SDS-PAGE (8%) and transferred to polyvinylidene difluoride membranes. After blocking in 5% non-fat milk in tris-buffered saline containing 0.1% Tween-20 (pH = 7.6), membranes were incubated with the appropriate primary antibodies at 4°C overnight. The primary antibodies γ-H2AX (Cat. No: 2577, Lot. No: 11, CST, USA) and Pol II (Cat. No: 05-623, Lot. No: 2397109, Millipore, USA) diluted 1:1000 in 5% bovine serum albumin (BSA, Cat. No. B2064-50G, Sigma, USA). Then the membranes were exposed to secondary antibodies (1:10,000, Cat. No.111-035-003, 115-035-003, Jackson ImmunoResearch Laboratories, USA) in 5% non-fat milk for 1 h at room temperature. Immunoreactive proteins were visualized using an enhanced chemiluminescent system (Cat. No. WBKLS0500, Millipore, Shanghai, China).
For immunofluorescence analysis, the paraffin-embedded testis tissue samples were deparaffinized three times in exchanges wash of xylene. The testis sections were then gradually rehydrated using decreasing ethanol concentrations followed by PBS (pH = 7.4). After antigen retrieval in boiling 0.1M citrate buffer (pH = 6.0), the tissue sections were placed in humidity chambers and incubated with 4% BSA in PBS for 2 h at room temperature. Then 1:400 1% BSA diluted γ-H2AX primary antibody (Cat. No: ab26350, Lot. No: GR305763-3, Abcam, USA) and isotope control Mouse IgG1 (Cat. No: sc-3877, Lot. No: F1316, Santa Cruz, USA) was used. After incubated with primary antibody overnight at 4°C, testis tissue samples were washed three times with PBS. […]

testes gene expression = assay: qPCR of AR-related, Sertoli cell and germ cell marker genes in testes; format: in vivo, mouse
Experimental: as §1
Total mouse testes RNA was isolated using a UNIQ-10 total RNA isolation kit (Sangon Biotech, Shanghai, China). One micro gram RNA per sample was reverse-transcribed into cDNA using a PrimeScript RT reagent kit (Cat. No. RR036A, Takara, Dalian, China). The purity and quality of RNA and cDNA were checked by A260/A280 ratio and agarose gel. The qPCR was executed in 20 μL volume containing 10 μL SYBR Premix Ex Taq (Cat. No. RR820A, Takara, Dalian, China), 8 μL of cDNA (80 ng cDNA), 1 μL forward primer (500 nM) and 1 μL reverse primer (500 nM). The sequences of primers for Androgen-binding protein (ABP) and cystatin 12 (Cst12) were referenced from PrimerBank. The sequences for other genes were described elsewhere [Deleted in azoospermia-like (Dazl), Heat shock protein a2 (Hspa2), Phosphoglycerate kinase-2 (Pgk2), Protamine 1 (Prm1), GATA binding protein 1 (Gata1) and Zbtb16 zinc finger and BTB domain containing 16 (Plzf) (Qi et al., [2016]); AR (Ma et al., [2013]); Reproductive homeobox 5 (Rhox5) (Kurek et al., [2015]); Fatty acid binding protein (FABP) (Vanschoonbeek et al., [2008]); Claudin 11 (Cldn11) (Sumigray et al., [2014]); β-actin (Wan et al., [2017])]. The qPCR process was performed using a Rotor Gene Q PCR system (QIAGEN, Shanghai, China). The qPCR amplification program consisted of polymerase activation at 98°C for the 30 s and 40 cycles of denaturation at 95°C for 5 s, annealing, and extension at 60°C for 40 s. The melting curve analysis was carried out for each reaction from 50 to 99°C. The CT values for the samples were normalized to the corresponding β-actin CT values.

[1] = test system: GC-2spd, GC-1spg and TM4 cells; assay: γ-H2AX protein level in three germ-cell lines (western blot); format: cell-based, mouse; conditions: 8h/16h treatment
Experimental: Mouse GC-1spg (spermatogonia-like, ATCC number: CRL-2053), TM4 (Sertoli cell-like, ATCC number: CRL-1715), and GC-2spd (spermatocyte-like, ATCC number: CRL-2196) were purchased from ATCC (Manassas, VA). Cells were grown in a 5% CO2 atmosphere at 37°C. TM4 was cultured in DMEM supplemented with 5% horse serum, 2.5% fetal bovine serum and 1x antibiotic-antimyotic (Cat. NO. 15240062, Life technologies). GC-1spg and GC-2spd were cultured in DMEM supplemented with 10% fetal bovine serum (Cat. No. F2442, Sigma, USA) and 1x antibiotic-antimyotic (Cat.NO. 15240062, Life technologies).
Cells were washed twice with ice-cold PBS (137 mM NaCl, 2.7 mM KCl, 10 mM Na2HPO4, and 1.8 mM KH2PO4, pH 7.4) and lysed in SDS sample buffer. Cell lysates, containing 20 μg of protein, were separated with SDS-PAGE (8%) and transferred to polyvinylidene difluoride membranes. […]
The effects of LLDT-8 on the expression of γ-H2AX was investigated in spermatocyte-like GC-2spd cells (A), spermatogonia-like cells (B) and sertoli-like cells (C) after 8h/16h treatment of LLDT-8 at indicated concentration. The protein level was quantified with ImageQuant software. β-actin was used as a loading control. Significant difference was determined by one-way Anova, Bars represent the mean ± SD, n = 3, * p<0.05, ** p<0.01 vs control group (0 nM).

With `CC(C)[C@]12O[C@H]1[C@@H]1O[C@]13[C@]1(O[C@H]1C[C@@]1(O)C4=C(CC[C@]31C)C(=O)OC4)[C@@H]2O` [LLDT-8, (5R)-5-hydroxytriptolide] the “XY bodies indicated by γ-H2AX foci in testes of WT mice” value (γ-H2AX; 1.0 mg/kg LLDT-8, 15 days) was “decreased”, the “γ-H2AX protein level (immunoblotting) in testes and liver” value (γ-H2AX; 0.5–1 mg/kg, 15 days) was “reduction of γ-H2AX protein level in the testes but not in the liver” and the “XY bodies indicated by γ-H2AX foci in testes of KO mice” value (γ-H2AX; LLDT-8 treated, 15 days) was “disappeared”. The “reduction of γ-H2AX in the testes of WT mice” value (γ-H2AX; immunoblotting, not statistically significant) was “up to 40%”, the “expression of AR, Rhox5, Cldn11, Cst12, ABP and FABP in testes of WT mice” value (testes gene expression; 0.5–1.0 mg/kg, 15 days) was “did not reduce” and the “expression of Dazl and Prm1 in testes of WT mice” value (testes gene expression; 15 days) was “marked decrease”. The “expression of Hspa2 in testes of WT mice” value (testes gene expression; 15 days) was “mild decrease”, the “expression of Cldn11, Cst12 and FABP in testes of WT mice” value (testes gene expression; particularly in 1.0 mg/kg group) was “increased” and the “protein levels of γ-H2AX in three germ-cell lines” value [1] was “did not decrease”.
